Laboratory results from PubChem BioAssay (NCI).
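Values below derive from 48-hour exposures of cells grown in 96-well plates, with endpoints linearly interpolated between the two concentrations bracketing the appropriate inhibition level. TGI: concentration producing complete growth inhibition.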

Assays:
Test in all cases: inhibition of tumour cell growth, NCI panel, 48 h
[1] = test system: MDA-N
[2] = test system: NCI/ADR-RES ovarian
[3] = test system: NCI-H522 lung
[4] = test system: M14 melanoma
[5] = test system: OVCAR-5 ovarian
[6] = test system: NCI-H23 lung
[7] = test system: SF-539 CNS
[8] = test system: 786-0 renal
[9] = test system: TK-10 renal
[10] = test system: COLO 205 colon
[11] = test system: CAKI-1 renal
[12] = test system: PC-3 prostate
[13] = test system: BT-549 breast
[14] = test system: IGROV1 ovarian
[15] = test system: UO-31 renal
[16] = test system: DU-145 prostate
[17] = test system: K-562 leukemia
[18] = test system: SR leukemia
[19] = test system: SK-MEL-2 melanoma
[20] = test system: UACC-62 melanoma
[21] = test system: U251 CNS
[22] = test system: SK-OV-3 ovarian
[23] = test system: SF-268 CNS
[24] = test system: HCC-2998 colon
[25] = test system: OVCAR-4 ovarian
[26] = test system: OVCAR-8 ovarian
[27] = test system: OVCAR-3 ovarian
[28] = test system: EKVX NSCLC
[29] = test system: UACC-257 melanoma
[30] = test system: SNB-75 CNS
[31] = test system: NCI-H226 lung
[32] = test system: CCRF-CEM leukemia
[33] = test system: ACHN renal
[34] = test system: HCT-116 colon
[35] = test system: MCF7 breast
[36] = test system: RPMI-8226 leukemia
[37] = test system: SW-620 colon
[38] = test system: SNB-19 CNS
[39] = test system: HCT-15 colon
[40] = test system: MALME-3M melanoma
[41] = test system: HT29 colon
[42] = test system: HOP-62 NSCLC
[43] = test system: HL-60(TB) leukemia
[44] = test system: MOLT-4 leukemia
[45] = test system: A549 NSCLC
[46] = test system: SF-295 CNS
[47] = test system: NCI-H460 lung
[48] = test system: SK-MEL-28 melanoma
[49] = test system: RXF 393 renal
[50] = test system: HOP-92 NSCLC
[51] = test system: T-47D breast
[52] = test system: SK-MEL-5 melanoma
[53] = test system: MDA-MB-231 breast
[54] = test system: LOX IMVI melanoma
[55] = test system: HS 578T breast
[56] = test system: SN12C renal
[57] = test system: KM12 colon
[58] = test system: MDA-MB-435
[59] = test system: A498 renal

CC(C)=Nn1cnc(C(=N)C#N)c1N
TGI [1]: > 100 µM
TGI [2]: > 100 µM
TGI [3]: > 100 µM
TGI [4]: > 100 µM
TGI [5]: > 100 µM
TGI [6]: > 100 µM
TGI [7]: > 100 µM
TGI [8]: > 100 µM
TGI [9]: > 100 µM
TGI [10]: > 100 µM
TGI [11]: > 100 µM
TGI [12]: > 100 µM
TGI [13]: > 100 µM
TGI [14]: > 100 µM
TGI [15]: > 100 µM
TGI [16]: > 100 µM
TGI [17]: > 100 µM
TGI [18]: > 100 µM
TGI [19]: > 100 µM
TGI [20]: > 100 µM
TGI [21]: > 100 µM
TGI [22]: > 100 µM
TGI [23]: > 100 µM
TGI [24]: > 100 µM
TGI [25]: > 100 µM
TGI [26]: > 100 µM
TGI [27]: > 100 µM
TGI [28]: > 100 µM
TGI [29]: > 100 µM
TGI [30]: > 100 µM
TGI [31]: > 100 µM
TGI [32]: > 100 µM
TGI [33]: > 100 µM
TGI [34]: > 100 µM
TGI [35]: > 100 µM
TGI [36]: > 100 µM
TGI [37]: > 100 µM
TGI [38]: > 100 µM
TGI [39]: > 100 µM
TGI [40]: > 100 µM
TGI [41]: > 100 µM
TGI [42]: > 100 µM
TGI [43]: > 100 µM
TGI [44]: > 100 µM
TGI [45]: > 100 µM
TGI [46]: > 100 µM
TGI [47]: > 100 µM
TGI [48]: > 100 µM
TGI [49]: > 100 µM

O/N=C1\CCc2nonc2\C1=N/Nc1ccccc1
TGI [1]: > 100 µM
TGI [50]: > 100 µM
TGI [51]: > 100 µM
TGI [2]: > 100 µM
TGI [4]: > 100 µM
TGI [52]: > 100 µM
TGI [5]: > 100 µM
TGI [6]: > 100 µM
TGI [7]: > 100 µM
TGI [53]: > 100 µM
TGI [54]: > 100 µM
TGI [8]: > 100 µM
TGI [9]: > 100 µM
TGI [10]: > 100 µM
TGI [11]: > 100 µM
TGI [12]: > 100 µM
TGI [14]: > 100 µM
TGI [15]: > 100 µM
TGI [16]: > 100 µM
TGI [17]: > 100 µM
TGI [18]: > 100 µM
TGI [55]: > 100 µM
TGI [19]: > 100 µM
TGI [20]: > 100 µM
TGI [21]: > 100 µM
TGI [22]: > 100 µM
TGI [23]: > 100 µM
TGI [56]: > 100 µM
TGI [24]: > 100 µM
TGI [25]: > 100 µM
TGI [26]: > 100 µM
TGI [27]: > 100 µM
TGI [28]: > 100 µM
TGI [29]: > 100 µM
TGI [30]: > 100 µM
TGI [31]: > 100 µM
TGI [32]: > 100 µM
TGI [33]: > 100 µM
TGI [57]: > 100 µM
TGI [34]: > 100 µM
TGI [36]: > 100 µM
TGI [37]: > 100 µM
TGI [38]: > 100 µM
TGI [39]: > 100 µM
TGI [40]: > 100 µM
TGI [41]: > 100 µM
TGI [42]: > 100 µM
TGI [43]: > 100 µM
TGI [58]: > 100 µM
TGI [44]: > 100 µM
TGI [45]: > 100 µM
TGI [46]: > 100 µM
TGI [47]: > 100 µM
TGI [48]: > 100 µM
TGI [49]: > 100 µM

CC[C@H]1C=CCC[C@@]2(C[C@@H]3CC[C@@H]4[C@H](C(=O)OCCCCCCCCCCCCCCCC(=O)N(CCCN)CCCCN)[C@]5(CCC[C@@H](C)O5)NC(=[N+]34)N2)O1
TGI [1]: 1.83 µM
TGI [50]: 0.197 µM
TGI [2]: 2.7 µM
TGI [4]: 0.0187 µM
TGI [6]: 1.07 µM
TGI [11]: 1.59 µM
TGI [12]: 1.46 µM
TGI [14]: 2.28 µM
TGI [15]: 0.334 µM
TGI [21]: 1.54 µM
TGI [57]: 1.2 µM
TGI [34]: 1.41 µM
TGI [38]: 1.99 µM
TGI [39]: 1.4 µM
TGI [40]: 0.119 µM
TGI [41]: 1.32 µM
TGI [42]: 0.106 µM
TGI [45]: 1.42 µM

Clc1ccccc1NN(Cc1ccncc1)c1ccccc1Cl
TGI [1]: 27.8 µM
TGI [50]: 18.2 µM
TGI [2]: 32 µM
TGI [3]: 29.6 µM
TGI [4]: 35.7 µM
TGI [52]: 27.6 µM
TGI [5]: 38.4 µM
TGI [6]: 29.2 µM
TGI [7]: 36 µM
TGI [53]: 27.8 µM
TGI [54]: 30.3 µM
TGI [8]: 26.6 µM
TGI [10]: 32 µM
TGI [12]: 28.9 µM
TGI [13]: 33.7 µM
TGI [14]: 27.7 µM
TGI [15]: 63.3 µM
TGI [16]: 34.8 µM
TGI [17]: 30.2 µM
TGI [18]: 32.2 µM
TGI [59]: 33.7 µM
TGI [55]: 48.6 µM
TGI [19]: 28.6 µM
TGI [20]: 30.7 µM
TGI [21]: 26.4 µM
TGI [22]: 44.9 µM
TGI [23]: 36.2 µM
TGI [56]: 26.5 µM
TGI [25]: 25.2 µM
TGI [26]: 29.3 µM
TGI [27]: 26.3 µM
TGI [28]: 30.1 µM
TGI [30]: 32.1 µM
TGI [31]: 39.3 µM
TGI [33]: 35.6 µM
TGI [57]: 36 µM
TGI [34]: 25.7 µM
TGI [35]: 53.5 µM
TGI [36]: 42.2 µM
TGI [37]: 35.1 µM
TGI [38]: 37 µM
TGI [39]: 34.3 µM
TGI [40]: 35.9 µM
TGI [41]: 26.1 µM
TGI [42]: 29.2 µM
TGI [43]: 37 µM
TGI [58]: 29.7 µM
TGI [44]: 33.9 µM
TGI [45]: 29.8 µM
TGI [46]: 31.6 µM
TGI [48]: 40.7 µM
TGI [49]: 31.8 µM

CC(C)(C)c1cc(C(=O)/C=C/c2ccn[nH]2)cc(C(C)(C)C)c1O
TGI [50]: 5.53 µM
TGI [51]: 3.32 µM
TGI [2]: 16.1 µM
TGI [3]: 2.73 µM
TGI [4]: 3.51 µM
TGI [52]: 20.1 µM
TGI [5]: 13.6 µM
TGI [6]: 7.38 µM
TGI [7]: 9.07 µM
TGI [53]: 3.97 µM
TGI [54]: 3.48 µM
TGI [8]: 3.05 µM
TGI [9]: 2.92 µM
TGI [10]: 4.98 µM
TGI [11]: 6.98 µM
TGI [12]: 5.18 µM
TGI [13]: 17 µM
TGI [14]: 3.97 µM
TGI [15]: 3.23 µM
TGI [16]: 7.52 µM
TGI [17]: 10.3 µM
TGI [18]: 3.61 µM
TGI [59]: 6.25 µM
TGI [55]: 9.22 µM
TGI [19]: 3.43 µM
TGI [20]: 8.37 µM
TGI [21]: 3.11 µM
TGI [22]: 31.7 µM
TGI [23]: 6.39 µM
TGI [56]: 3.6 µM
TGI [24]: 3.37 µM
TGI [25]: 18 µM
TGI [26]: 6.02 µM
TGI [27]: 7.39 µM
TGI [28]: 28.4 µM
TGI [29]: 11.2 µM
TGI [30]: 9.61 µM
TGI [31]: 11.6 µM
TGI [32]: 5.97 µM
TGI [33]: 3.03 µM
TGI [57]: 5.35 µM
TGI [34]: 6.11 µM
TGI [35]: 4.78 µM
TGI [36]: 3.37 µM
TGI [37]: 6.27 µM
TGI [38]: 9.91 µM
TGI [39]: 4.71 µM
TGI [40]: 20.2 µM
TGI [41]: 6.59 µM
TGI [42]: 9.52 µM
TGI [43]: 5.64 µM
TGI [58]: 8.34 µM
TGI [44]: 10.1 µM
TGI [45]: 9.8 µM
TGI [46]: 28.1 µM
TGI [47]: 8.6 µM
TGI [48]: 11.7 µM
TGI [49]: 3.19 µM
